From patent US6013665A, “Method for enhancing the absorption and transport of lipid soluble compounds using structured glycerides” (Abbott Laboratories, priority 1997, dated 2000)
Like-named read-outs stand apart in the source and are kept apart here. Values belong to the compound of their own block, whether it stands above or below them.

Assays:
[1] = cited from earlier work
[2] = design: species or system Male Sprague Dawley rats; details: rat, in vivo
Procedure: (§1) The results set forth in FIGS. 1-4 are statistically significant at p<0.01 (see *). A two way analysis of variance model was employed for each treatment, lipid type and their interaction effects in the model were used to compare the area under each curve. Models were extended to included contrast statements comparing the physical mix and the structured triglyceride within each treatment group.
(§2) This experiment was conducted to determine if a structured glyceride consisting of a co-randomized MCT/fish oil would enhance the absorption of lipophilic compounds such as vitamin E (tocopherol) and retinol (vitamin A) using a lymph fistula rat model based upon a procedure described by Fujimoto et al., "Effect of Ischemia-Reperfusion on Lipid Digestion and Absorption in Rat Intestine", Am. J. Physiol., 260: G595-G602 (1991), the entire teaching of which is hereby incorporated by reference. This model was designed to represent fat absorption mode of the healthy intestinal tract (i.e., not compromised through disease or ischemic event). The lymph fistula rat model is extremely accurate in measuring and quantitating lipid absorption.
(§3) The physical mix (Part A)and structured triglyceride component (Part B) of Example 1 were used. […].
(§4) Male Sprague Dawley rats weighing between 280 and 330 grams were all fed a normal Purina Rat Chow for one week. Rats were fasted overnight prior to surgery and under anesthesia, a laparotomy was performed, the intestinal lymph duct was cannulated according to the procedure of Tso et al., "The Absorption of Lipid and Lipoprotein Synthesis", Lipid Research Methodology, Chapter 5: 191-216 (1984) Alan R. Liss, Inc., N.Y., N.Y, the entire teaching of which is hereby incorportated by reference. […] A silicon infusion tube (1.6 mm OD) was placed in the stomach for infusion of saline, structured lipid/lipophilic compound or emulsified physical mix/lipophilic compound. The fundic incision was closed by a purse string suture. The animals were allowed to recover for 24 hours before experimental oil/lipophilic compound infusion began.
(§5) Animals were randomly assigned to two groups in this non-injury model. […].
(§6) Lymph was collected in pre-cooled tubes beginning hourly for eight (8) hours after initiation of lipid infusion. At the end of the lipid infusion, the animals were sacrificed by exsanguination.
(§7) Radioactivity was measured in an aqueous miscible scintillant (Poly-Fluor, Packard, Downers Grove, Ill.). Samples were counted for 10 minutes in a liquid scintillation spectrophotometer (LKB Model 1209, Pharmacia, Inc.). Samples were corrected for quenching by reference to a series of ^14 C and ^3 H standards that were progressively quenched.
Lymph lipids were extracted and the methyl ester derivatives of the fatty acids were analyzed using a Hewlett Packard Gas Chromatograph, Model 5890A with a capillary column packed with 10% SP-2330 on 80/100 Supelcoport (Supelco, Inc., Bellefonte, Pa.).

[3] = rat, in vivo
Procedure: as §1, §2, §3, §4, §5, §6, §7
This experiment was conducted in a manner similar to Example 2 except that the ischemic/reperfusion injury model was used. This model was used to simulate the lipid malabsorption conditions associated with diseases such as Short Bowel Syndrome, Crohn's disease and the like. Animals were divided into two groups and given the physical mix (Group A) or the structured triglyceride component (Group B) of Example 2.

[4] = cited from earlier work; remark: listed apart in the source
[5] = rat, in vivo; cited from earlier work
[6] = in vivo; cited from earlier work
[7] = in vivo; cited from earlier work; remark: listed apart in the source

Compound: CCCCCCCC/C=C\CCCCCCCC(=O)O [oleic acid]
absorption into the lymphatic system from an emulsion ([1]; rats with bile diversion, emulsion): well absorbed into the lymphatic system

amount of retinol to the lymphatic circulation, structured triglyceride component vs physical mixture, end of study (FIG. 3) [3]: more than twice the amount
lymphatic retinol absorption, structured triglyceride component vs physical mixture, initial 3 hour period (FIG. 3) [3]: about equal
Compound: CC1=C(/C=C/C(C)=C/C=C/C(C)=C/CO)C(C)(C)CCC1 [retinol]
lymph tocopherol and retinol output with structured glyceride component versus physical mix [2]: increased rapidly and maintained a significantly higher output
lymphatic retinol absorption, structured triglyceride component vs physical mix (FIG. 1) [2]: increased the lymphatic absorption of retinol over the entire 8 hour study period
retinol absorption, structured triglyceride component over physical mix, after about 3 hours (FIG. 3) [3]: enhancement in the retinol absorption over the physical mix

Compound: CCCCCCCC/C=C\CCCCCCCC(=O)OCC(COC(=O)CCCCCCC/C=C\CCCCCCCC)OC(=O)CCCCCCC/C=C\CCCCCCCC [triolein]
amount of lipid transported to the lymph ([4]; lymph fistula rat, same amount of fatty acid infused as triolein or phosphatidylcholine with vitamin E): similar

Compound: phosphatidylcholine
amount of lipid transported to the lymph ([4]; rat, in vivo): similar

higher lymph output of the lipophilic compound with structured triglyceride compared to the corresponding physical mix [2]: ≥ 30%
higher lymph output of the lipophilic compound with structured triglyceride component compared to the corresponding physical mix [3]: ≥ 30%
tocopherol absorption, structured triglyceride component vs physical mix, initial 2 hour period (FIG. 4) [3]: essentially equal
Compound: α-tocopherol
lymph tocopherol and retinol output with structured glyceride component versus physical mix [2]: increased rapidly and maintained a significantly higher output
lymphatic tocopherol absorption, structured glyceride component vs physical mix (FIG. 2) [2]: enhances the lymphatic absorption of tocopherol over the entire 8 hour study period
lymphatic tocopherol absorption, structured triglyceride vs physical mix, after about 2 hours (FIG. 4) [3]: significantly enhanced level of lymphatic tocopherol absorption
gastrointestinal absorption of lecithin-dispersed aqueous preparations of vitamin E with MCT [5]: significantly enhanced the absorption
lymphatic absorption of vitamin E from lecithin-dispersed aqueous preparations [5]: increase the lymphatic absorption of vitamin E
intestinal absorption of vitamin E with MCT [6]: enhancing effect of MCT on intestinal absorption of vitamin E
transport of vitamin E into lymph, phosphatidylcholine vs triglyceride infusion ([4]; rat, in vivo): significantly reduced
α-tocopherol absorption by rat small intestine with polyunsaturated fatty acids in bile salt micelles [7]: depress α-tocopherol absorption
absorption into the lymphatic system from an emulsion ([1]; rat, in vivo): poorly absorbed from the emulsion
